One assay addresses T1, EGFR(L861Q) (Homo sapiens, UniProt P00533, L861Q).
T1 construct: purchased Eurofins DiscoverX KINOMEscan
The assay is described as follows: KINOMEscan 1 μM, EGFR(L861Q). The format is binding. Conditions: 1000 nM; Entrez EGFR; read-out: Percent Control. The source says: (§1) Supplement cells-12-00287-s001.zip/File S2. KinomeScan data for the CAMKK2 probe and negative control.xlsx, sheet "SGC-CAMKK2-1" | column: Percent Control

Assay [1] deals with T2, ABL1(H396P)-phosphorylated (Homo sapiens, UniProt P00519, H396P).
T2 construct: purchased Eurofins DiscoverX KINOMEscan
The assay is described as follows: KINOMEscan 1 μM, ABL1(H396P)-phosphorylated. In kind it is binding. Conditions: 1000 nM; Entrez ABL1; read-out: Percent Control.
Text: as §1

The target in another assay is T3, PKN1 (Homo sapiens, UniProt Q16512).
T3 construct: purchased Eurofins DiscoverX KINOMEscan
The assay is described as follows: KINOMEscan 1 μM, PKN1. Conditions: 1000 nM; Entrez PKN1; read-out: Percent Control. In kind it is binding.
Text: as §1

A further assay deals with T4, PRKCE (Homo sapiens, UniProt Q02156).
T4 construct: purchased Eurofins DiscoverX KINOMEscan
T4 sequence (Q02156 whole entry): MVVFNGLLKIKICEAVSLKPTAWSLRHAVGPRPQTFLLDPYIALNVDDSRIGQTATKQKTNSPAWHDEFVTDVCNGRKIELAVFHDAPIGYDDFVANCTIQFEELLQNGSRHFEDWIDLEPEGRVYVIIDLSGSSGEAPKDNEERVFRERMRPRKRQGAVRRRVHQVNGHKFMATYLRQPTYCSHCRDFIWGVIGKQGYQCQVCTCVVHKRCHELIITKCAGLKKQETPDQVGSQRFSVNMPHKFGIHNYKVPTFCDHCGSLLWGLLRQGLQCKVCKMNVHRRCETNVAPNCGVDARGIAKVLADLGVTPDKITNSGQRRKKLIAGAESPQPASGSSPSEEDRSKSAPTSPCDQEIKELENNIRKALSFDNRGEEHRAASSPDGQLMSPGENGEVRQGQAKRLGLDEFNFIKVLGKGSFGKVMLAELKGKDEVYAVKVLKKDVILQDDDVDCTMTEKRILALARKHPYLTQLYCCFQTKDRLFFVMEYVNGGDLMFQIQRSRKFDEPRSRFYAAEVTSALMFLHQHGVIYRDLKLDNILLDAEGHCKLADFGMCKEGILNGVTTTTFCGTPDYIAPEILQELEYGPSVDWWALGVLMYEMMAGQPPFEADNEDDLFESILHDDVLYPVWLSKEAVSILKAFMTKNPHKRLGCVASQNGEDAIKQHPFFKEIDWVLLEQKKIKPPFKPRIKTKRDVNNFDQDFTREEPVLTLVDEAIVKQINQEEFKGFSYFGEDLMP
The assay is described as follows: KINOMEscan 1 μM, PRKCE. Conditions: 1000 nM; Entrez PRKCE; read-out: Percent Control. The format is binding.
Text: as §1

The target in the next assay is T5, EPHB3 (Homo sapiens, UniProt P54753).
T5 construct: purchased Eurofins DiscoverX KINOMEscan
The assay is described as follows: KINOMEscan 1 μM, EPHB3. Conditions: 1000 nM; Entrez EPHB3; read-out: Percent Control. In kind it is binding.
Text: as §1

Another assay has as its target T6, CAMK2D (Homo sapiens, UniProt Q13557).
T6 construct: purchased Eurofins DiscoverX KINOMEscan
The assay is described as follows: KINOMEscan 1 μM, CAMK2D. In kind it is binding. To be noted: 1000 nM; Entrez CAMK2D; read-out: Percent Control.
Text: as §1

The target of a further assay is T7, DDR1 (Homo sapiens, UniProt Q08345).
T7 construct: purchased Eurofins DiscoverX KINOMEscan
The assay is described as follows: KINOMEscan 1 μM, DDR1. The format is binding. To be noted: 1000 nM; Entrez DDR1; read-out: Percent Control.
Text: as §1

The next assay concerns the target T8, PKMYT1 (Homo sapiens, UniProt Q99640).
T8 construct: purchased Eurofins DiscoverX KINOMEscan
The assay is described as follows: KINOMEscan 1 μM, PKMYT1. In kind it is binding. Conditions: 1000 nM; Entrez PKMYT1; read-out: Percent Control.
Text: as §1

The next assay addresses T9, ARK5 (Homo sapiens, UniProt O60285).
T9 construct: purchased Eurofins DiscoverX KINOMEscan
The assay is described as follows: KINOMEscan 1 μM, ARK5. In kind it is binding. Conditions: 1000 nM; Entrez NUAK1; read-out: Percent Control.
Text: as §1

A further assay has as its target T10, BRK (Homo sapiens, UniProt Q13882).
T10 construct: purchased Eurofins DiscoverX KINOMEscan
The assay is described as follows: KINOMEscan 1 μM, BRK. The format is binding. Conditions: 1000 nM; Entrez PTK6; read-out: Percent Control.
Text: as §1

A further assay concerns the target T11, ERBB2 (Homo sapiens, UniProt P04626).
T11 construct: purchased Eurofins DiscoverX KINOMEscan
The assay is described as follows: KINOMEscan 1 μM, ERBB2. In kind it is binding. Conditions: 1000 nM; Entrez ERBB2; read-out: Percent Control.
Text: as §1

A further assay addresses T12, IKK-epsilon (Homo sapiens, UniProt Q14164).
T12 construct: purchased Eurofins DiscoverX KINOMEscan
The assay is described as follows: KINOMEscan 1 μM, IKK-epsilon. The format is binding. To be noted: 1000 nM; Entrez IKBKE; read-out: Percent Control.
Text: as §1

A further assay deals with T13, PIK3CA(E542K) (Homo sapiens, UniProt P42336, E542K).
T13 construct: purchased Eurofins DiscoverX KINOMEscan
The assay is described as follows: DiscoverX KINOMEscan binding assay at 1 μM, PIK3CA(E542K). To be noted: Compound Concentration 1000 nM, read-out: Percent Control.
Text: as §1

Assay [2] deals with T14, RPS6KA4(Kin.Dom.1-N-terminal) (Homo sapiens, UniProt O75676).
T14 construct: RPS6KA4(Kin.Dom.1-N-terminal); purchased Eurofins DiscoverX KINOMEscan
The assay is described as follows: DiscoverX KINOMEscan binding assay at 1 μM, RPS6KA4(Kin.Dom.1-N-terminal). Conditions: Compound Concentration 1000 nM, read-out: Percent Control.
Text: as §1

For assay [3], the target named is T15, RSK2(Kin.Dom.1-N-terminal) (Homo sapiens, UniProt P51812).
T15 construct: RSK2(Kin.Dom.1-N-terminal); purchased Eurofins DiscoverX KINOMEscan
The assay is described as follows: DiscoverX KINOMEscan binding assay at 1 μM, RSK2(Kin.Dom.1-N-terminal). Conditions: RSK2(Kin.Dom.1-N-terminal) (RPS6KA3); Compound Concentration 1000 nM; read-out: Percent Control.
Text: as §1

For a further assay, the target named is T16, HIPK3 (Homo sapiens, UniProt Q9H422).
T16 construct: purchased Eurofins DiscoverX KINOMEscan
T16 sequence (Q9H422 whole entry): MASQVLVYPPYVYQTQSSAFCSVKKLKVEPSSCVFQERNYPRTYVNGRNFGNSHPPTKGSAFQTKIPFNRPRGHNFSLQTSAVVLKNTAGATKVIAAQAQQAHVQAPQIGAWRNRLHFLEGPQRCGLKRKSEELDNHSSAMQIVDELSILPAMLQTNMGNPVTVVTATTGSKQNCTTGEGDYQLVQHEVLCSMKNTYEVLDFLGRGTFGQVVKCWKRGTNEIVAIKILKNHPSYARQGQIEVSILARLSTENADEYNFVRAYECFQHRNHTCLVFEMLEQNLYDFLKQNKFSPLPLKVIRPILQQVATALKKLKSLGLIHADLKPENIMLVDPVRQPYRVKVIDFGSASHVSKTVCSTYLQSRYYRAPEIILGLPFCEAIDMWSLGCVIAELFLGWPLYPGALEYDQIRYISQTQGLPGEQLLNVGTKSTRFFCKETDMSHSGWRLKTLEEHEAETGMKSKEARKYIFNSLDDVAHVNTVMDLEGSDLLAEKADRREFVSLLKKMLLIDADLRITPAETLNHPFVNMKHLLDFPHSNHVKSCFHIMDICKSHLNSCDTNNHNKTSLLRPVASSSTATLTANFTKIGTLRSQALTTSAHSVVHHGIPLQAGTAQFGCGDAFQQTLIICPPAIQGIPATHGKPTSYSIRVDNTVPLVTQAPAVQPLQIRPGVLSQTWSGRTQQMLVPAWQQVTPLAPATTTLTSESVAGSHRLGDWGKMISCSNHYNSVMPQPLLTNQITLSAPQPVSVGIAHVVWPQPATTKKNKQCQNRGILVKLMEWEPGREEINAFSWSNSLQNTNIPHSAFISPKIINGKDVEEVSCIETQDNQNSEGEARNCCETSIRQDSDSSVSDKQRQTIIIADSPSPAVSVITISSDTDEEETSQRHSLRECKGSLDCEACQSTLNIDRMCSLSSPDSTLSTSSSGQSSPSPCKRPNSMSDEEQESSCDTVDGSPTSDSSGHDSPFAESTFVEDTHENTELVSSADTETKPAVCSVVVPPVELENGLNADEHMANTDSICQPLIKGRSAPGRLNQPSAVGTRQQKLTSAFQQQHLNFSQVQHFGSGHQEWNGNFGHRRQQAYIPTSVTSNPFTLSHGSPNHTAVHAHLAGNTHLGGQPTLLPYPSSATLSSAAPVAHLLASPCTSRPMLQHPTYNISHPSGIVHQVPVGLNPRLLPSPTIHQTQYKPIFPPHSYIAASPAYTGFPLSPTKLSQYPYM
The assay is described as follows: KINOMEscan at 1 μM, HIPK3. The format is binding. Conditions: 1000 nM, read-out: Percent Control. The source says: (§2) Supplement cells-12-00287-s001.zip/File S2. KinomeScan data for the CAMKK2 probe and negative control.xlsx, sheet "SGC-CAMKK2-1N" | column: Percent Control

The next assay concerns the target T17, KIT(D816H) (Homo sapiens, UniProt P10721, D816H).
T17 construct: purchased Eurofins DiscoverX KINOMEscan
The assay is described as follows: KINOMEscan at 1 μM, KIT(D816H). The format is binding. To be noted: 1000 nM, read-out: Percent Control.
Text: as §2

A further assay concerns the target T18, CDK7 (Homo sapiens, UniProt P50613).
T18 construct: purchased Eurofins DiscoverX KINOMEscan
The assay is described as follows: KINOMEscan at 1 μM, CDK7. The format is binding. Conditions: 1000 nM, read-out: Percent Control.
Text: as §2

The target in another assay is T19, CAMK2B (Homo sapiens, UniProt Q13554).
T19 construct: purchased Eurofins DiscoverX KINOMEscan
The assay is described as follows: KINOMEscan at 1 μM, CAMK2B. Conditions: 1000 nM, read-out: Percent Control. The format is binding.
Text: as §2

For another assay, the target named is T20, CSNK1G3 (Homo sapiens, UniProt Q9Y6M4).
T20 construct: purchased Eurofins DiscoverX KINOMEscan
T20 sequence (Q9Y6M4 whole entry): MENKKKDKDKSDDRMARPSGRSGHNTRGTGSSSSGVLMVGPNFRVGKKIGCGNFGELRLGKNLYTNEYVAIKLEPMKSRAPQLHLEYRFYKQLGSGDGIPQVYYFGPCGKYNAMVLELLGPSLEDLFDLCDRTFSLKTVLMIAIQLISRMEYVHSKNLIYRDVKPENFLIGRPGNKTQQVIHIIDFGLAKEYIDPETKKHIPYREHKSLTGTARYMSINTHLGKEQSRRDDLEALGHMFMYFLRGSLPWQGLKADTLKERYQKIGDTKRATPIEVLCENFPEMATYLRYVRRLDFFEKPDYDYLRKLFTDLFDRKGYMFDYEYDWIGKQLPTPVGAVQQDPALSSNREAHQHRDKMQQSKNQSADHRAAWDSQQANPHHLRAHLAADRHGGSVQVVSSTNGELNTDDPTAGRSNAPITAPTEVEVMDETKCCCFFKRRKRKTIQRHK
The assay is described as follows: KINOMEscan at 1 μM, CSNK1G3. The format is binding. To be noted: 1000 nM, read-out: Percent Control.
Text: as §2

In a further assay the target is T21, SRPK2 (Homo sapiens, UniProt P78362).
T21 construct: purchased Eurofins DiscoverX KINOMEscan
T21 sequence (P78362 whole entry): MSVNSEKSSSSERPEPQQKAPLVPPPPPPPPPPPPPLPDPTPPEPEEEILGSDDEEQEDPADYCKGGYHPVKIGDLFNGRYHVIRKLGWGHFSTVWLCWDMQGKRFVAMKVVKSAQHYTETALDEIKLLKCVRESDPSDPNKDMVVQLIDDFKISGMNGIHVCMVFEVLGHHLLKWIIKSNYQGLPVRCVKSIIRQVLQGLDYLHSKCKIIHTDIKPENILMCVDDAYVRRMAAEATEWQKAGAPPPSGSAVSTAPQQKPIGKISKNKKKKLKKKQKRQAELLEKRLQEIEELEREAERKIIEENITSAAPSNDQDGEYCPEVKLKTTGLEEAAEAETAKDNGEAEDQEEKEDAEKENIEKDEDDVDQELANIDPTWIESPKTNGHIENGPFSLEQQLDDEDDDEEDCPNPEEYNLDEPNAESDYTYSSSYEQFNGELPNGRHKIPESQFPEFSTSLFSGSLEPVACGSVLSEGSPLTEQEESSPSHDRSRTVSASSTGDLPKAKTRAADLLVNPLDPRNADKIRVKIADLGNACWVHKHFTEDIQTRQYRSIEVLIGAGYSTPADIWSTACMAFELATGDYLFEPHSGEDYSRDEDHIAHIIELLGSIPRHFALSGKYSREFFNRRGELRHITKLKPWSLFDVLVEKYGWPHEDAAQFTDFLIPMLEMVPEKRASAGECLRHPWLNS
The assay is described as follows: KINOMEscan at 1 μM, SRPK2. Conditions: 1000 nM, read-out: Percent Control. The format is binding.
Text: as §2

The next assay deals with T22, IRAK3 (Homo sapiens, UniProt Q9Y616).
T22 construct: purchased Eurofins DiscoverX KINOMEscan
The assay is described as follows: KINOMEscan at 1 μM, IRAK3. To be noted: 1000 nM, read-out: Percent Control. In kind it is binding.
Text: as §2

The target of another assay is T23, KIT (Homo sapiens, UniProt P10721).
T23 construct: purchased Eurofins DiscoverX KINOMEscan
The assay is described as follows: KINOMEscan at 1 μM, KIT. To be noted: 1000 nM, read-out: Percent Control. In kind it is binding.
Text: as §2

For assay [4], the target named is T24, TYK2(JH1domain-catalytic) (Homo sapiens, UniProt P29597).
T24 construct: TYK2(JH1domain-catalytic); purchased Eurofins DiscoverX KINOMEscan
The assay is described as follows: KINOMEscan at 1 μM, TYK2(JH1domain-catalytic). The format is binding. Conditions: 1000 nM, read-out: Percent Control.
Text: as §2

In another assay the target is T25, RIPK1 (Homo sapiens, UniProt Q13546).
T25 construct: purchased Eurofins DiscoverX KINOMEscan
The assay is described as follows: KINOMEscan at 1 μM, RIPK1. In kind it is binding. To be noted: 1000 nM, read-out: Percent Control.
Text: as §2

Another assay concerns the target T26, PLK2 (Homo sapiens, UniProt Q9NYY3).
T26 construct: purchased Eurofins DiscoverX KINOMEscan
The assay is described as follows: KINOMEscan at 1 μM, PLK2. The format is binding. To be noted: 1000 nM, read-out: Percent Control.
Text: as §2

The next assay deals with T27, PDGFRB (Homo sapiens, UniProt P09619).
T27 construct: purchased Eurofins DiscoverX KINOMEscan
The assay is described as follows: KINOMEscan at 1 μM, PDGFRB. In kind it is binding. Conditions: 1000 nM, read-out: Percent Control.
Text: as §2

Another assay deals with T28, PHKG1 (Homo sapiens, UniProt Q16816).
T28 construct: purchased Eurofins DiscoverX KINOMEscan
The assay is described as follows: KINOMEscan at 1 μM, PHKG1. The format is binding. To be noted: 1000 nM, read-out: Percent Control.
Text: as §2

In the next assay the target is T29, EGFR(G719C) (Homo sapiens, UniProt P00533, G719C).
T29 construct: purchased Eurofins DiscoverX KINOMEscan
The assay is described as follows: KINOMEscan binding assay at 1 μM, EGFR(G719C). To be noted: Compound Concentration 1000 nM; read-out: Percent Control.
Text: as §2

For a further assay, the target named is T30, NEK6 (Homo sapiens, UniProt Q9HC98).
T30 construct: purchased Eurofins DiscoverX KINOMEscan
The assay is described as follows: KINOMEscan binding assay at 1 μM, NEK6. To be noted: Compound Concentration 1000 nM; read-out: Percent Control.
Text: as §2

Another assay has as its target T31, PAK3 (Homo sapiens, UniProt O75914).
T31 construct: purchased Eurofins DiscoverX KINOMEscan
The assay is described as follows: KINOMEscan binding assay at 1 μM, PAK3. To be noted: Compound Concentration 1000 nM; read-out: Percent Control.
Text: as §2

In the next assay the target is T32, TIE1 (Homo sapiens, UniProt P35590).
T32 construct: purchased Eurofins DiscoverX KINOMEscan
The assay is described as follows: KINOMEscan binding assay at 1 μM, TIE1. To be noted: Compound Concentration 1000 nM; read-out: Percent Control.
Text: as §2

T11 sequence (P04626 23-1255): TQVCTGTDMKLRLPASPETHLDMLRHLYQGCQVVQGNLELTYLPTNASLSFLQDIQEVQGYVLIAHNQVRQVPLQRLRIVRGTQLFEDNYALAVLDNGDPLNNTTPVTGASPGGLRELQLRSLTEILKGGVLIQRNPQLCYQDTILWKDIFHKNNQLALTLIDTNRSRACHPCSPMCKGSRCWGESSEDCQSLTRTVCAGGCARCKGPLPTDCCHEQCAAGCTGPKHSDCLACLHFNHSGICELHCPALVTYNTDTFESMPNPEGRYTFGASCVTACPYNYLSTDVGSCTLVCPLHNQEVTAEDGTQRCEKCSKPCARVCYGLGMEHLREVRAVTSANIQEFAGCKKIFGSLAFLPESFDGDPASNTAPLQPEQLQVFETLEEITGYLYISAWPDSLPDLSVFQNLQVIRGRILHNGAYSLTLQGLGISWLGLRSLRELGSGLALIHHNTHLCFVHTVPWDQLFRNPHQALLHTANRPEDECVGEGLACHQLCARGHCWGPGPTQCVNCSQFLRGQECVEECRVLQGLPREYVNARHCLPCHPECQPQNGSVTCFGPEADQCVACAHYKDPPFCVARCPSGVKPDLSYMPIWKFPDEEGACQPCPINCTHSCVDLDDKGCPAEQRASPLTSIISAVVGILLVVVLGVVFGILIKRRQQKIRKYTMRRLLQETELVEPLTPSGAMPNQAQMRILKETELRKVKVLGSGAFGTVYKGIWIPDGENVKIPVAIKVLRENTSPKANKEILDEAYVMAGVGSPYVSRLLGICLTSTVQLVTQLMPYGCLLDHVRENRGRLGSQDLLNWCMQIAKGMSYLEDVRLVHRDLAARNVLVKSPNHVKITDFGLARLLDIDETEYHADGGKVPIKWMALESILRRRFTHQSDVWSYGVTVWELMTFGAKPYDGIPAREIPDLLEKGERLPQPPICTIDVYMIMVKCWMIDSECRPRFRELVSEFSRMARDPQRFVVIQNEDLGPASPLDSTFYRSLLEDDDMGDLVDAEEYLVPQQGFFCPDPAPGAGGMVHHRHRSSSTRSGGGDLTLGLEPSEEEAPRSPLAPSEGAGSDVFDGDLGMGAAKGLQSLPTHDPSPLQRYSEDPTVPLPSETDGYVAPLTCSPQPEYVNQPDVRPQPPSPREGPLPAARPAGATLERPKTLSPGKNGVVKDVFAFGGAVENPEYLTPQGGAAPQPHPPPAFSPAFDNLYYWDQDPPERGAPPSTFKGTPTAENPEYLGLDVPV
T9 sequence (O60285 whole entry): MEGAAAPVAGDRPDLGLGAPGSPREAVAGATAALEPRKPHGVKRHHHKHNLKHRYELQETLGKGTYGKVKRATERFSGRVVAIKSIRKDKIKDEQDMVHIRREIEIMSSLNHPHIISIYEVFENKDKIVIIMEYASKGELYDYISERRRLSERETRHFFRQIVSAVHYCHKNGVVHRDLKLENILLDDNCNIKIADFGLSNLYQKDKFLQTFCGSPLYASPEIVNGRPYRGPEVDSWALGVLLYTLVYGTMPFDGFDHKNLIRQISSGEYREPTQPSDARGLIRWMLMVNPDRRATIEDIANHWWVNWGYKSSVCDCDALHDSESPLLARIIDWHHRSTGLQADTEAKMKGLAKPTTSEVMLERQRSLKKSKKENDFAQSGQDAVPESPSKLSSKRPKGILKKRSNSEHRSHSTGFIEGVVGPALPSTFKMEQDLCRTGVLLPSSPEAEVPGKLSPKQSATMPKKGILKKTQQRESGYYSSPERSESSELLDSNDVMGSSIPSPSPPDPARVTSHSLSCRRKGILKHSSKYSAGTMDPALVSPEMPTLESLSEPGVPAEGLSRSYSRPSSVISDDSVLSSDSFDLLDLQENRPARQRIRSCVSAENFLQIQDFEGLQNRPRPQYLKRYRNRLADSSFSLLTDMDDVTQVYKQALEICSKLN

Take `Cc1cccc(-c2cnc3occ(-c4ccc(C(=O)O)c(C5CCCC5)c4)c3c2)c1` [SGC-CAMKK2-1 (YL-36)]: the remaining binding at 1 µM at EGFR(L861Q) is 47%; in assay [1], 77%; on PKN1 it was 84%; at PRKCE it was 90%; on EPHB3 it was 96%; on CAMK2D it was 98%. The remaining binding at 1 µM is 98% at DDR1; 99% on PKMYT1; 100% on ARK5; 100% at BRK; 100% on ERBB2; 100% on IKK-epsilon. Also, the remaining binding at 1 µM (at PIK3CA(E542K); in [2]; in assay [3]) was 100% each time.
Regarding `O=C(O)c1ccc(-c2coc3ncc(-c4ccccc4)cc23)cc1Cl` [SGC-CAMKK2-1N (UNC-YL-83)], the remaining binding at 1 µM was 40% on HIPK3; 57% at KIT(D816H); 66% at CDK7; 69% at CAMK2B; 76% at CSNK1G3; 76% at SRPK2. In addition, the remaining binding at 1 µM at IRAK3 came out at 82%; at KIT it was 89%; in assay [4], 89%; at RIPK1 it was 90%; at PLK2, 91%; at PDGFRB, 92%. Also, the remaining binding at 1 µM on PHKG1 was 93%; on EGFR(G719C) it was 100%; on NEK6, 100%; on PAK3, 100%; at TIE1, 100%.

(Values after publication PMC9856672, “SGC-CAMKK2-1: A Chemical Probe for CAMKK2” (Cells, 2023).)
